Patent publication US9328095B2, “Heteroaryl linked quinolinyl modulators of RORgammat” (Janssen Pharmaceutica NV, priority 2013, dated 2016)

Key:
[1] = biological target: T1, wild type human RORγt LBD fused to the DNA binding domain of the GAL4 protein (Homo sapiens, UniProt P51449); experiment: RORγt reporter assay; assay type: cell-based; settings: HEK293T cells
T1 construct: expressed in transfected cells; host or cells: HEK293T
T1 sequence (P51449 258-518): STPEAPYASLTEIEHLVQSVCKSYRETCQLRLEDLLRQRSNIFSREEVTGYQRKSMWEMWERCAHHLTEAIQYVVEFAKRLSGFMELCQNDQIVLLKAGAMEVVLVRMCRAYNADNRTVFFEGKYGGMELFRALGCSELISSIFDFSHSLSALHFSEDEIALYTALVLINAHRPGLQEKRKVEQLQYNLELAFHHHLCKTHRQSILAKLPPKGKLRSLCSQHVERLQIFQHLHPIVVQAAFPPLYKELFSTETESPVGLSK
Source text: A reporter assay was used to test functional activity of RORγt modulatory compounds on transcriptional activation driven by the RORγt LBD. Cells used in the assay were co-transfected with two constructs. The first construct, pBIND-RORγt LBD, contained the wild type human RORγt LBD fused to the DNA binding domain of the GAL4 protein. The second construct, pGL4.31 (Promega Cat no. C935A), contained multiple GAL4 responsive DNA elements upstream of firefly luciferase. […] The mutant construct was called pBIND-RORγt-AF2.
The pBIND vector contains the GAL4 DNA Binding Domain (GAL4 DBD) and the renilla luciferase gene under control of the SV40 promoter. […]
The reporter assay was performed by transiently transfecting HEK293T cells with 5 μg of pBIND-RORγt LBD or pBIND-RORγt LBD-AF2 and 5 μg pGL4.31 (Promega Cat no. C935A) using Fugene 6 (Invitrogen Cat no. E2691) at a 1:6 ratio of DNA: Fugene 6 in a T-75 flask in which cells were at least 80% confluent. […] Dual Glo Luciferase Reagent (50 μL/well) was then added and firefly luciferase luminescence was read on an Envision after a ten minute incubation. Finally, Stop and Glo reagent (50 μL/well) was added and renilla luciferase luminescence was read on an Envision after a ten minute incubation. To calculate the effect of compounds on RORγt activity, the ratio of firefly to renilla luciferase was determined and plotted against compound concentration. […]

[2] = test system: IL-17 production by CD4 T cells; experiment: Human Th17 assay; assay type: cell-based; settings: 3 days
Source text: The human Th17 assay tests the effect of RORγt modulatory compounds on IL-17 production by CD4 T cells under conditions which favor Th17 differentiation.
Total CD4^+ T cells were isolated from the peripheral blood mononuclear cells (PBMC) of healthy donors using a CD4^+ T cell isolation kit II, following the manufacturer's instructions (Miltenyi Biotec). Cells were resuspended in a medium of RPMI-1640 supplemented with 10% fetal bovine serum, penicillin, streptomycin, glutamate, and β-mercaptoethanol and were added to 96-well plates at 1.5×10^5 per 100 μL per well. 50 μL of compound at titrated concentrations in DMSO were added into each well at final DMSO concentration at 0.2%. Cells were incubated for 1 hour, then 50 μL of Th17 cell differentiation medium was added to each well. The final concentrations of antibodies and cytokines (R&D Systems) in differentiation medium were: 3×10^6/mL anti-CD3/CD28 beads (prepared using human T cell activation/expansion kit, Miltenyi Biotec), 10 μg/mL anti-IL4, 10 μg/mL anti-IFNγ, 10 ng/mL IL1β, 10 ng/mL IL23, 50 ng/mL IL6, 3 ng/mL TGFβ and 20 U/mL IL2. Cells were cultured at 37° C. and 5% CO2 for 3 days. Supernatants were collected and the accumulated IL-17 in culture was measured by using MULTI-SPOT® Cytokine Plate following manufacture's instruction (Meso Scale Discovery). The plate was read using Sector Imager 6000, and IL-17 concentration was extrapolated from the standard curve. The IC50s were determined by GraphPad.

[3] = biological target: T2, human RORγt ligand binding domain (RORγt LBD) (Homo sapiens, UniProt P51449); experiment: RORγt ThermoFluor assay
T2 construct: His-tag (N); TurboTEV protease cleavage site (ENLYFQG) (N); made in house; host or cells: E. coli (pHIS1, modified pET vector)
T2 sequence (P51449 with tags, fused parts or gaps): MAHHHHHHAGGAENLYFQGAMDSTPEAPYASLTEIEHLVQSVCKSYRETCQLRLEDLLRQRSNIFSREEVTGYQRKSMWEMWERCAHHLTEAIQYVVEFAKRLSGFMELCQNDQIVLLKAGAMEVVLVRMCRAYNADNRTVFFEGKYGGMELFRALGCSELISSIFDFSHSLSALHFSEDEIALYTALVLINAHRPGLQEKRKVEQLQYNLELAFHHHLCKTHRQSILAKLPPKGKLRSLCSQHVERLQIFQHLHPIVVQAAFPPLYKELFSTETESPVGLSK
Protocol: This approach is applicable to a wide variety of systems, and rigorous in theoretical interpretation through quantitation of equilibrium binding constants (KD).
The shift in the melting point described as a ΔTm is proportional to the concentration and affinity of the ligand. The compound potency may be compared as a rank order of either ΔTm values at a single compound concentration or in terms of KD values, estimated from concentration response curves.
ThermoFluor® experiments were carried out using instruments owned by Janssen Research and Discovery, L.L.C. through its acquisition of 3-Dimensional Pharmaceuticals, Inc. 1,8-ANS (Invitrogen) was used as a fluorescent dye. […]
Bar-coded assay plates are robotically loaded onto a thermostatically controlled PCR-type thermal block and then heated at a typical ramp-rate of 1° C./min for all experiments. Fluorescence was measured by continuous illumination with UV light (Hamamatsu LC6) supplied via fiber optic and filtered through a band-pass filter (380-400 nm; >6 OD cutoff). Fluorescence emission of the entire 384-well plate was detected by measuring light intensity using a CCD camera (Sensys, Roper Scientific) filtered to detect 500±25 nm, resulting in simultaneous and independent readings of all 384 wells. […]

Row | Compound | IC50 [2] | other results
1 | CCN(CC)c1nc2ccc(C(O)(c3ccccn3)c3cncn3C)cc2c(C#N)c1Oc1ccccc1 (single isomer, unassigned) [Example 5c] |  | inhibition at 6 µM ([1]; HEK-293T, 6 μM): 103%
2 | Cn1cncc1C(O)(c1ccc(C(F)(F)F)nc1)c1ccc2nc(N3CCCC3)c(Oc3ccc(C#N)cc3)c(Cl)c2c1 (stereo not drawn) [Example 2a, 4-((4-Chloro-6-(hydroxy(1-methyl-1H-imidazol-5-yl)(6-(trifluoromethyl)pyridin-3-yl)methyl)-2-(pyrrolidin-1-yl)quinolin-3-yl)oxy)benzonitrile] | 0.088 µM | 
3 | Cn1cncc1C(O)(c1ccc(C(F)(F)F)nc1)c1ccc2nc(N3CCCC3)c(Oc3ccc(C#N)cc3)c(Cl)c2c1 (stereo not drawn) [Example 2b] | 0.32 µM | 
4 | Cn1cncc1C(O)(c1ccc(C(F)(F)F)nc1)c1ccc2nc(N3CCCC3)c(Oc3ccc(C#N)cc3)c(Cl)c2c1 (stereo not drawn) [Example 2c] | 0.1 µM | 
5 | CC(C)(C)OC(=O)N(c1ccccc1)c1c(Cl)nc2ccc(C(O)(c3cccnc3)c3cccc(Cl)c3)cc2c1Cl (stereo not drawn) [Example 7, tert-Butyl (2,4-dichloro-6-((3-chlorophenyl)(hydroxy)(pyridin-3-yl)methyl)quinolin-3-yl)(phenyl)carbamate] |  | IC50 [1]: 1.4 µM; Kd [3]: 23 µM
